# Results as given in PubChem BioAssay (NCI).
#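 At the GI50, growth is halved. TGI is the concentration that stops growth completely.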
# How the values were obtained:
# Assay in all cases: NCI tumour cell line growth inhibition, 384-well format
# 786-0 renal = test system: 786-0 renal
# ACHN renal = test system: ACHN renal
# BT-549 breast = test system: BT-549 breast
# CAKI-1 renal = test system: CAKI-1 renal
# CCRF-CEM leukemia = test system: CCRF-CEM leukemia
# COLO 205 colon = test system: COLO 205 colon
# EKVX NSCLC = test system: EKVX NSCLC
# HCC-2998 colon = test system: HCC-2998 colon
# HCT-116 colon = test system: HCT-116 colon
# HL-60(TB) leukemia = test system: HL-60(TB) leukemia
# HOP-62 NSCLC = test system: HOP-62 NSCLC
# HOP-92 NSCLC = test system: HOP-92 NSCLC
# HS 578T breast = test system: HS 578T breast
# HT29 colon = test system: HT29 colon
# IGROV1 ovarian = test system: IGROV1 ovarian
# K-562 leukemia = test system: K-562 leukemia
# KM12 colon = test system: KM12 colon
# LOX IMVI melanoma = test system: LOX IMVI melanoma
# M14 melanoma = test system: M14 melanoma
# MCF7 breast = test system: MCF7 breast
# MDA-MB-231 breast = test system: MDA-MB-231 breast
# MDA-MB-435 melanoma = test system: MDA-MB-435 melanoma
# MDA-MB-468 breast = test system: MDA-MB-468 breast
# NCI-H322M lung = test system: NCI-H322M lung
# NCI-H460 NSCLC = test system: NCI-H460 NSCLC
# NCI-H522 lung = test system: NCI-H522 lung
# OVCAR-4 ovarian = test system: OVCAR-4 ovarian
# OVCAR-5 ovarian = test system: OVCAR-5 ovarian
# OVCAR-8 ovarian = test system: OVCAR-8 ovarian
# RPMI-8226 leukemia = test system: RPMI-8226 leukemia
# RXF 393 renal = test system: RXF 393 renal
# SF-268 CNS = test system: SF-268 CNS
# SF-295 CNS = test system: SF-295 CNS
# SF-539 CNS = test system: SF-539 CNS
# SK-MEL-2 melanoma = test system: SK-MEL-2 melanoma
# SK-MEL-28 melanoma = test system: SK-MEL-28 melanoma
# SK-MEL-5 melanoma = test system: SK-MEL-5 melanoma
# SN12C renal = test system: SN12C renal
# SNB-19 CNS = test system: SNB-19 CNS
# SNB-75 CNS = test system: SNB-75 CNS
# SW-620 colon = test system: SW-620 colon
# T-47D breast = test system: T-47D breast
# TK-10 renal = test system: TK-10 renal
# U251 glioblastoma = test system: U251 glioblastoma
# UACC-257 melanoma = test system: UACC-257 melanoma
# UACC-62 melanoma = test system: UACC-62 melanoma
# UO-31 renal = test system: UO-31 renal
smiles,measurement,setting,value
N#CCC1(n2cc(-c3ncnc4[nH]ccc34)cn2)CN(C2CCN(C(=O)c3ccnc(C(F)(F)F)c3F)CC2)C1,GI50,786-0 renal,> 96.4 µM
same,TGI,786-0 renal,> 100 µM
same,GI50,ACHN renal,> 64.7 µM
same,TGI,ACHN renal,> 100 µM
same,GI50,BT-549 breast,50.4 µM
same,TGI,BT-549 breast,> 100 µM
same,GI50,CAKI-1 renal,> 84.9 µM
same,TGI,CAKI-1 renal,> 100 µM
same,GI50,CCRF-CEM leukemia,20.6 µM
same,TGI,CCRF-CEM leukemia,44.9 µM
same,GI50,COLO 205 colon,28.5 µM
same,TGI,COLO 205 colon,70.6 µM
same,GI50,EKVX NSCLC,> 70 µM
same,TGI,EKVX NSCLC,> 100 µM
same,GI50,HCC-2998 colon,> 100 µM
same,TGI,HCC-2998 colon,> 100 µM
same,GI50,HCT-116 colon,> 79.5 µM
same,TGI,HCT-116 colon,> 100 µM
same,GI50,HL-60(TB) leukemia,> 62 µM
same,TGI,HL-60(TB) leukemia,97.7 µM
same,GI50,HOP-62 NSCLC,> 68.2 µM
same,TGI,HOP-62 NSCLC,> 100 µM
same,GI50,HOP-92 NSCLC,40.1 µM
same,TGI,HOP-92 NSCLC,> 100 µM
same,GI50,HS 578T breast,30.9 µM
same,TGI,HS 578T breast,92.9 µM
same,GI50,HT29 colon,> 73 µM
same,TGI,HT29 colon,> 100 µM
same,GI50,IGROV1 ovarian,> 76 µM
same,TGI,IGROV1 ovarian,> 100 µM
same,GI50,K-562 leukemia,34.5 µM
same,TGI,K-562 leukemia,> 100 µM
same,GI50,KM12 colon,42.3 µM
same,TGI,KM12 colon,> 100 µM
same,GI50,LOX IMVI melanoma,> 100 µM
same,TGI,LOX IMVI melanoma,> 100 µM
same,GI50,M14 melanoma,> 88.6 µM
same,TGI,M14 melanoma,> 100 µM
same,GI50,MCF7 breast,> 71.8 µM
same,TGI,MCF7 breast,> 100 µM
same,GI50,MDA-MB-231 breast,45.8 µM
same,TGI,MDA-MB-231 breast,> 100 µM
same,GI50,MDA-MB-435 melanoma,> 100 µM
same,TGI,MDA-MB-435 melanoma,> 100 µM
same,GI50,MDA-MB-468 breast,17.6 µM
same,TGI,MDA-MB-468 breast,50.5 µM
same,GI50,NCI-H322M lung,> 100 µM
same,TGI,NCI-H322M lung,> 100 µM
same,GI50,NCI-H460 NSCLC,49.6 µM
same,TGI,NCI-H460 NSCLC,> 100 µM
same,GI50,NCI-H522 lung,18.4 µM
same,TGI,NCI-H522 lung,39.2 µM
same,GI50,OVCAR-4 ovarian,> 100 µM
same,TGI,OVCAR-4 ovarian,> 100 µM
same,GI50,OVCAR-5 ovarian,> 100 µM
same,TGI,OVCAR-5 ovarian,> 100 µM
same,GI50,OVCAR-8 ovarian,> 100 µM
same,TGI,OVCAR-8 ovarian,> 100 µM
same,GI50,RPMI-8226 leukemia,22.2 µM
same,TGI,RPMI-8226 leukemia,65.7 µM
same,GI50,RXF 393 renal,58.3 µM
same,TGI,RXF 393 renal,> 100 µM
same,GI50,SF-268 CNS,> 39.8 µM
same,TGI,SF-268 CNS,> 69.3 µM
same,GI50,SF-295 CNS,72.9 µM
same,TGI,SF-295 CNS,> 100 µM
same,GI50,SF-539 CNS,> 76.2 µM
same,TGI,SF-539 CNS,> 100 µM
same,GI50,SK-MEL-2 melanoma,> 100 µM
same,TGI,SK-MEL-2 melanoma,> 100 µM
same,GI50,SK-MEL-28 melanoma,> 100 µM
same,TGI,SK-MEL-28 melanoma,> 100 µM
same,GI50,SK-MEL-5 melanoma,> 41.9 µM
same,TGI,SK-MEL-5 melanoma,> 70.7 µM
same,GI50,SN12C renal,83.1 µM
same,TGI,SN12C renal,> 100 µM
same,GI50,SNB-19 CNS,> 100 µM
same,TGI,SNB-19 CNS,> 100 µM
same,GI50,SNB-75 CNS,> 58 µM
same,TGI,SNB-75 CNS,> 100 µM
same,GI50,SW-620 colon,> 61.1 µM
same,TGI,SW-620 colon,> 100 µM
same,GI50,T-47D breast,49.6 µM
same,TGI,T-47D breast,> 100 µM
same,GI50,TK-10 renal,> 100 µM
same,TGI,TK-10 renal,> 100 µM
same,GI50,U251 glioblastoma,> 100 µM
same,TGI,U251 glioblastoma,> 100 µM
same,GI50,UACC-257 melanoma,> 81.8 µM
same,TGI,UACC-257 melanoma,> 100 µM
same,GI50,UACC-62 melanoma,> 61.3 µM
same,TGI,UACC-62 melanoma,> 100 µM
same,GI50,UO-31 renal,72.5 µM
same,TGI,UO-31 renal,> 100 µM
